Experimental data taken from PMC7559934, “Characterization of Resveratrol, Oxyresveratrol, Piceatannol and Roflumilast as Modulators of Phosphodiesterase Activity. Study of Yeast Lifespan” (Pharmaceuticals, 2020).

Tests used:
[1] = biological target: T1, yPDE2 (high-affinity phosphodiesterase type 2) (Saccharomyces cerevisiae, UniProt P06776); experiment: HPLC-UV assay of cAMP hydrolysis; Lineweaver-Burk and Km app/Km plot at several inhibitor concentrations; type: biochemical; details: read-out: Inhibitors
T1 construct: gene PDE2
T1 sequence (P06776 1-526): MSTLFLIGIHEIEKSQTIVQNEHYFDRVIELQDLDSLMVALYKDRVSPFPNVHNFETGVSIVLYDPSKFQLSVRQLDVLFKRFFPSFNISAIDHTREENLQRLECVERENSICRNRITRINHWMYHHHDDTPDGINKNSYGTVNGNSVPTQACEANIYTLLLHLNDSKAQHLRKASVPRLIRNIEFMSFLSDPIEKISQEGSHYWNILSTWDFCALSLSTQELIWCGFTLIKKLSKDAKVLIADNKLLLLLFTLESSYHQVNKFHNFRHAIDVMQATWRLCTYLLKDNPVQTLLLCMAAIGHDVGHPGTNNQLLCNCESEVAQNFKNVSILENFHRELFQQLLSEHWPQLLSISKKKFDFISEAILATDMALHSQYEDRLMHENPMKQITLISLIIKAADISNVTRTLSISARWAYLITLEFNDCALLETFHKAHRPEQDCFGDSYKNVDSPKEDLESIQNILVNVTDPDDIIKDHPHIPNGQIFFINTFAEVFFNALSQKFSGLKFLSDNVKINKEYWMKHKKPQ

[2] = biological target: T1, yPDE2 (high-affinity phosphodiesterase type 2); experiment: HPLC-UV assay of cAMP hydrolysis; Ki converted from I50 (competitive equation); type: biochemical; details: read-out: Inhibitors

Ki [1] [µM]	Ki [2] [µM]	Compound
63 ± 3	–	Oc1ccc(/C=C/c2cc(O)cc(O)c2)cc1 [resveratrol]
–	0.3 ± 0.02	O=C(Nc1c(Cl)cncc1Cl)c1ccc(OC(F)F)c(OCC2CC2)c1 [roflumilast]
–	50 ± 5	Oc1cc(O)cc(/C=C/c2ccc(O)c(O)c2)c1 [piceatannol]

Compound	Ki [1] [µM]	Ki [2] [µM]
Oc1cc(O)cc(/C=C/c2ccc(O)cc2O)c1 [oxyresveratrol]	–	46 ± 4
